Reference: patent publication US6521656B1, “Remedies for male sterility” (Fujisawa Pharmaceutical Co., Ltd., priority 1998, dated 2003)

Test system: human sperm
Assay: Test for evaluation of the promoting effect on the induction of sperm acrosomal reaction (FITC-concanavalin A fluorescence staining)
Format: cell-based
Conditions: for acrosomal reaction induction rate (%): incubation time 3; for induction of acrosomal reaction: human sperm, summary in words
Method: Percoll for sperm washing was isotonized and adjusted to 90% with 20 mM Hepes buffered Hanks solution (pH 7.4; supplemented with 1.0 mg/ml BSA). The ejaculated human seminal fluid was allowed to liquefy at room temperature, diluted 2-fold with Hanks solution, and layered on 6.0 ml Percoll. In the Percoll layer, a glass capillary had been inserted in advance. The system was centrifuged at 1000×g for 30 minutes to precipitate motile sperm. The precipitated sperm was aspirated through the capillary and recovered. The sperm was resuspended in Hanks solution at a final concentration of about 50×10^6/ml and cultured at 37° C.
The human sperm acrosomal reaction was monitored by a fluorescence staining technique using FITC-concanavalin A.
As the acrosomal cap splits off on acrosomal reaction, the membrane protein rich in the high-mannose sugar chain on the acrosomal tunica intima becomes exposed. Therefore, the sperm showing a yellow fluorescence in the anterior half of the head was regarded as acrosomal reaction-induced sperm.
Compound A was added to the sperm suspension at a final concentration of 10^−6 or 10^−7 M. Observation was made in the group supplemented with 1 I.U./ml of adenosine deaminase and the non-enzyme-addition group.
Compounds B and C were respectively added to the sperm suspension at a final concentration of 10^−7 M. Observation was made in the groups supplemented with 1 I.U./ml of adenosine deaminase.
Each figure denotes the acrosomal reaction induction rate (%) (the mean±S.E. of 3 observations in Table 1; the mean±S.E. of 5 observations in Tables 2 and 3). In Table 1, the figure in the top row represents the result obtained in the absence of adenosine deaminase and the figures in the bottom row represent the results in the presence of adenosine deaminase.

SMILES	acrosomal reaction induction rate (%) (Compound B 10^−7 M, supplemented with 1 I.U./ml adenosine deaminase, mean±S.E. of 5 observations)	induction of acrosomal reaction	acrosomal reaction induction rate (%) (Compound A 10^−6 M, absence of adenosine deaminase, mean±S.E. of 3 observations)	acrosomal reaction induction rate (%) (Compound A 10^−6 M, presence of adenosine deaminase 1 I.U./ml, mean±S.E. of 3 observations)	acrosomal reaction induction rate (%) (Compound A 10^−7 M, absence of adenosine deaminase, mean±S.E. of 3 observations)	acrosomal reaction induction rate (%) (Compound A 10^−7 M, presence of adenosine deaminase 1 I.U./ml, mean±S.E. of 3 observations)	acrosomal reaction induction rate (%) (Compound C 10^−7 M, supplemented with 1 I.U./ml adenosine deaminase, mean±S.E. of 5 observations)
O=C(O)C[C@H]1CCCCN1C(=O)C=Cc1c(-c2ccccc2)nn2ccccc12 (single isomer, unassigned) [Compound B]	41.26 ± 2.18	promoted					
O=C(O)CCCn1nc(-c2c(-c3ccccc3)nn3ccccc23)ccc1=O [Compound A, 3-[2-(3-Carboxypropyl)-3-oxo-2,3-dihydropyridazin-6-yl]-2-phenylpyrazolo[1,5-a]pyridine]		promoted	43.7 ± 2.77	63.6 ± 1.84	47.1 ± 2.37	64.1 ± 1.73	
O=C(O)CC1=C(n2nc(-c3c(-c4ccccc4)nn4ccccc34)ccc2=O)CCCC1 [Compound C, 3-[2-(2-Carboxymethyl-1-cyclohexenyl)-3-oxo-2,3-dihydropyridazin-6-yl]-2-phenylpyrazolo[1,5-a]pyridine]		promoted					48.86 ± 2.57
